Measured values as given in patent US5430057A, “Parenteral busulfan for treatment of malignant disease” (priority 1993, dated 1995).
≈ marks a conversion by molar mass, not a printed value. Entries after “also recorded” stand apart in the source; their conditions may differ.

Legend:
human erythrocytes = test: Hemolysis studies; format: cell-based; conditions: in words
Protocol: The procedure of Reed and Yalkowsky was employed for the studies of hemolytic potential of the different preparations, and the LD50 values of the various formulations were evaluated (Reed et al., 1985).
Variable amounts of whole blood (citrated) were added to 0.05 ml of the drug formulations in ratios of 1:1 (v/v), 1:3, 1:5, 1:7, and 1:9. The mixtures were vortexed for 10 seconds and then incubated for 2 minutes at 25°C. Five ml normal saline was then added to this blend to quench further lysis of the erythrocytes by rendering the preparation nearly isotonic. The mixture was again vortexed for 10 seconds and centrifuged for 5 minutes at 3,000 r.p.m. (Beckman Model TJ-6 Centrifuge, Beckman Instruments Inc., Palo Alto, Calif.). The supernatant was carefully aspirated and discarded. The packed erythrocytes were washed once more at room temperature with one volume of normal saline. After centrifugation, the supernatant was again carefully aspirated and discarded. […] The absorbance of the supernatant was subsequently measured at 540 nm after a 1:3 dilution with distilled water° Normal saline was assayed in parallel as a standard. The fraction of […] was defined as the absorbance reading of the respective drug formulation divided by that of the saline standards (Reed et al., 1985).
The hemolytic potential of the various busulfan formulations was evaluated. […]

[1] = test system: human KBM-3 myeloid leukemia cells; test: In vitro cytotoxicity, MTT assay; format: cell-based; conditions: for cells killed: 24 hours, 37° C.
Protocol: In vitro Cytotoxicity of Busulfan in the DMA/PEG-400 Vehicle. Human leukemic KBM-3 cells (Anderson, et al., 1992), were incubated for 24 hours in the complete vehicle without the addition of busulfan at different concentrations (0.5%, 1.0%, 2.0%, 3.0% and […], v/v), to assay the cytotoxic properties of the 20% DMA/40% PEG-400 aqueous vehicle by itself (negative controls), or with the addition of busulfan. In parallel, cells in Iscove's modified Dulbecco medium (GIBCO, Grand Island, New York, N.Y.), supplemented with 10% fetal bovine serum, were incubated with busulfan (at 25 μg/ml and 50 μg/ml), in the 20% DMA/40% PEG-400 aqueous solvent (the resulting vehicle concentrations were 1.0 and 2.0% (v/v), respectively), or with busulfan dissolved in a small volume (≤1%, v/v) of acetone (positive controls). After 24 hours, 25 μl of a 5 mg/ml solution of MTT (3, [4,5-dimethylthiazol-2-yl]2,5-diphenyltetrazoliumbromide, obtained from Sigma Chemicals, St. Louis, MO), was added to each sample, and after an additional 2 hours of incubation at 37° C., 100 μl of extraction buffer was added (extraction buffer: 20% (w/v) SDS dissolved to saturation at 37° C. in a solution of equal parts of dimethylformamide and deionized water; the pH was adjusted to 4.7 by the use of acetic acid and 1 N HCL as described (Hansen et al., 1989). After over night incubation at 37° C., the optical densities at 570 nm were measured using a Titer-Tech 96-well multi-scanner, using the extraction buffer as the blank. The cytotoxicity was determined as the difference between the samples as above and the reactivity of cells incubated in PBS alone. All determinations were performed in triplicate.
To study the cytotoxic activity of busulfan in the 20% DMA/40% PEG-400 aqueous vehicle, human KBM-3 myeloid leukemia cells (Andersson et al., 1992), were exposed to either the complete vehicle at various concentrations without or with the addition of busulfan for 24 hours at 37° C. The cytotoxicity was assayed with the MTT assay (Hansen et al., 1989). […]

[2] = Stability of busulfan formulations on storage / after mixing; format: physicochemical
Protocol: Stability of the Various Busulfan Formulations. The physical and chemical stabilities of the various parenteral busulfan formulations were examined as follows: First, busulfan was dissolved at a concentration of 25 mg/ml in DMA only ("stock solution") and incubated at 4° C. at 22° C. and at 40°C. Starting at time zero, then weekly up to 10 weeks, samples were withdrawn and analyzed for busulfan concentration by HPLC. Second, the busulfan-DMA was diluted with PEG-400/water to give final concentrations of DMA:PEG-400:water of 20:40:40 and final busulfan concentrations of 2-10 mg/ml. These formulations were subsequently analyzed by HPLC immediately after mixing and then hourly for eight hours. Third, busulfan formulation mixtures were diluted in normal saline to a final busulfan concentration of 1 mg/ml. The preparations were then introduced into infusion bags (Viaflex™ Baxter Healthcare Corp Deerfield, Id.), and allowed to run through a parenteral infusion set at a rate of 1 ml/min. Samples were collected at 0, 0.5, 1.0, 2.0, 5.0, 7.0, 9.0, and 12 hours and analyzed for busulfan by HPLC as above.
The drug was first dissolved in DMA at 25 mg/ml. Different aliquots were stored at 4° C., at 22° C., and at 40°C. From time 0 and then weekly, samples were analyzed for busulfan drug degradation over at least 15 weeks of observation. […] The stability of busulfan in the complete 20% DMA/40% PEG-400/40% water was also studied for the following different busulfan concentrations, 2, 3, 5, 8, and 10 mg/ml. At 2 and 3 mg/ml the busulfan was stable for the duration of the 8 hour observation period in this solvent system.

[3] = room temperature; cited from earlier work
erythrocytes = conditions: cited from earlier work
[4] = Plasma pharmacokinetics of busulfan, oral tablet, oral solution and i.v. solution; format: in vivo, Sprague-Dawley rats; conditions: in words
Text: The present example provides the development of an efficient technique for extraction of busulfan from blood plasma, adaptation of the HPLC assay for quantitation of busulfan in the plasma extract, and studies of the in vivo plasma pharmacokinetics of busulfan when administered orally as the commercially available tablet, as an oral solution in a vehicle of 40% PEG-400, and as an intravenous injection when dissolved in a vehicle of 40% PEG-400. A comparison of the plasma pharmacokinetics of busulfan in the rat is also given after i.v. busulfan administration. The drug was dissolved at 3 mg/ml in either acetone or DMSO or the complete 20% DMA/40% PEG-400 aqueous solvent.
Rat plasma (0.2 ml) was spiked with varying concentrations of busulfan (from a stock solution in DMA), to give final drug concentrations of 0.15-3.0 μg/ml. The internal standard, 20 μl, (CGA-112913; in methanol, 20 μg/ml) was then added to the drug-plasma mixtures. After vortexing for 10 seconds, the drug and internal standard were precipitated from the plasma proteins with 0.2 ml acetonitrile with subsequent vortexing for 30 seconds. The busulfan and internal standard were then extracted using 2 ml of ethyl acetate and vortexed for 1 minute. The solutions were centrifuged for 10 minutes and 1 ml of the ethyl acetate layer was evaporated to dryness under compressed air. The busulfan and internal standard were then dissolved in 0.5 ml of distilled water and derivatized with 0.2 ml of an 8.2% (w/v) solution of diethyldithiocarbamic acid sodium and vortexed for 30 seconds.
The busulfan derivative, DDCB (Diethyldithiocarbamoyl butane), was subjected to solid phase extraction with Sep-Pak LC™ cartridges (Millipore Corporation, Bedford, Ill.) under vacuum. The cartridges were conditioned with three 1-ml washes of methanol followed by two 1-ml washes with distilled water. The derivatized solutions were then passed through the cartridges and the cartridges washed twice with 1 ml 50% methanol in distilled water. The DDCB and the internal standard were eluted from the columns using 250-μ1 methanol twice, followed by two washes of 0.5-ml of ethyl acetate. […]

[5] = i.p., cited from earlier work
[6] = i.p., 2.5% carboxymethylcellulose in water; cited from earlier work
[7] = cited from earlier work
[8] = Solubility of busulfan in various solvent systems (HPLC); format: physicochemical; conditions: acetone, organic solvent or mixture
[9] = Equilibrium solubility studies; format: physicochemical; conditions: anhydrous dma, organic solvent or mixture
Protocol: An excess amount of busulfan was added to each solution and the mixtures were placed on a rotating mixer (Tube Rotator™, Scientific Equipment Products, Baltimore, Md.). […] For the DMA/PEG-400 aqueous vehicle, a slightly modified approach had to be taken, since DMA readily dissolved the ACRO LC 25 filter. After dissolving the busulfan in DMA, the busulfan-DMA solution was mixed with 40% PEG-400/40% water and filtered through a 0.45 μm silver filter (Nuclepore Corp., Pleasanton, Calif.) fitted to a syringe assembly. After derivatization with DDTC, the busulfan concentration was determined by HPLC as above.

## CS(=O)(=O)OCCCCOS(C)(=O)=O [busulfan, 1,4-bis-(methanesulfonoxyl)butane]
Human erythrocytes
  contribution of busulfan to hemolysis: did not add significantly to the overall hemolytic effect; also recorded: insignificant
[1]; 20% DMA/40% PEG-400 aqueous vehicle vs acetone, in words
  cytotoxic activity in vehicle: retained its cytotoxic activity
[1]; busulfan 25 μg/ml in 20% DMA/40% PEG-400 aqueous vehicle
  cells killed: about 50%
[1]; busulfan 50 μg/ml in 20% DMA/40% PEG-400 aqueous vehicle
  cells killed: approximately 80%
[2]; 25 mg/ml in DMA, 40° C.
  onset of degradation: around 3 weeks
[2]; 25 mg/ml in DMA, 40° C., 15 weeks, 151200 min
  degradation at 15 weeks: about 50%
[2]; DMSO, in words
  stability in DMSO: rapidly degrades busulfan
[3]
  solubility in water: 0.025 mg/mL (≈ 0.101 mM)
erythrocytes; Bishop et al., 1986
  hemolysis by busulfan itself: shown to cause hemolysis
[4]; oral
  absorption, non-fasting vs fasting animals: non-fasting animals seem to absorb more drug than fasting subjects
[4]; parenteral vs oral
  bioavailability / plasma concentrations vs oral preparations: higher after parenteral administration than after oral dosing
[4]; ratio
  AUC, parenteral vs standard tablet in non-fasting animals: about five times higher
  peak plasma concentration, parenteral vs standard tablet in non-fasting animals: approximately ten times higher
[5]; in polyethyleneglycol, 60 mg/kg
  platelet dysfunction: induce platelet dysfunction
[5]
  toxicity of intraperitoneal administration: very toxic and causes significant local tissue damage
[6]
  local toxicity of intraperitoneal injection: causes significant local tissue damage
[7]; oral, high dose combinations
  liver toxicity: veno-occlusive disease (VOD) of the liver, leading to fatal liver failure
[7]; oral, high dose
  neurological and gastrointestinal side effects: grand mal seizures and severe nausea and vomiting
[7]; prolonged administration
  myelosuppression: occasionally severe, sometimes even irreversible myelosuppression
[8]
  solubility: 25 mg/mL (≈ 101 mM)
[9]
  solubility: 75 mg/mL (≈ 304 mM)

## cyclodextrins
erythrocytes; Yoshida et al., 1988
  hemolysis LD50: about 2 % (w/v)
